Test results published in patent publication US6551390B1, “Composition containing two different disazodyestuffs useful for ink jet recording” (Avecia Limited, priority 1998, dated 2003).

Assay: Aqueous solubility of dyes and dye composition
Assay type: physicochemical
Settings: aqueous solubility at 20° C. and pH 9.5
Description: The aqueous solubility of Composition (1), Dye (A) and Dye (B) at 20° C. and pH 9.5 is: […]

## COc1cc(N=Nc2cccc(S(=O)(=O)O)c2)ccc1NC(=O)Nc1ccc(N=Nc2cccc(S(=O)(=O)O)c2)cc1OC [Dye (A), CI Direct Yellow 132]
  Solubility (%): 10.7%
